Patent US20230085307A1, “PYRIDAZINONE COMPOUND AND HERBICIDE” (NISSAN CHEMICAL CORPORATION, priority 2019, published 2023)

Experiments:
[1] = test system: barnyard grass; experiment: Test Example 3: herbicidal effect by foliage application, Wagner pot (Table 18, symbol H); assay type: in vivo, barnyard grass (Echinochloa crus-galli); conditions: 320 g/ha
How it was run: (§1)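 Plants were sown in alluvial soil held under 0.1–0.5 cm standing water and grown 14 days in a greenhouse at 25–30 °C. An emulsifiable formulation, water-diluted to the set dose, was then sprayed onto the foliage, and effects were scored three weeks later using previously defined criteria.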

[2] = test system: Chinese sprangletop; experiment: Test Example 3: herbicidal effect by foliage application, Wagner pot (Table 18, symbol D); assay type: in vivo, chinese sprangletop (Leptochloa chinensis); conditions: 320 g/ha
How it was run: as §1

[3] = test system: rice flat sedge; experiment: Test Example 3: herbicidal effect by foliage application, Wagner pot (Table 18, symbol E); assay type: in vivo, rice flat sedge (Cyperus iria); conditions: 320 g/ha
How it was run: as §1

[4] = test system: southern crabgrass; experiment: Test Example 4: herbicidal effect by soil treatment (Table 19, symbol F); assay type: in vivo, southern crabgrass (Digitaria ciliaris); conditions: AAH 320 g/ha
How it was run: (§2)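 Pre-emergence style soil spray: seeds under ~1.5 cm sterilized diluvial soil received a uniform coat of emulsion diluted to the predetermined herbicide amount. Greenhouse 25–30° C; readout at week three on previously defined criteria.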

[5] = test system: green foxtail; experiment: Test Example 4: herbicidal effect by soil treatment (Table 19, symbol G); assay type: in vivo, green foxtail (Setaria viridis); conditions: AAH 320 g/ha
How it was run: as §2

[6] = test system: barnyard grass; experiment: Test Example 4: herbicidal effect by soil treatment (Table 19, symbol H); assay type: in vivo, barnyard grass (Echinochloa crus-galli); conditions: AAH 320 g/ha
How it was run: as §2

[7] = test system: wild oat; experiment: Test Example 4: herbicidal effect by soil treatment (Table 19, symbol I); assay type: in vivo, wild oat (Avena fatua); conditions: AAH 320 g/ha
How it was run: as §2

[8] = test system: blackgrass; experiment: Test Example 4: herbicidal effect by soil treatment (Table 19, symbol J); assay type: in vivo, blackgrass (Alopecurus myosuroides); conditions: AAH 320 g/ha
How it was run: as §2

[9] = test system: Italian ryegrass; experiment: Test Example 4: herbicidal effect by soil treatment (Table 19, symbol K); assay type: in vivo, Italian ryegrass (Lolium multiflorum); conditions: AAH 320 g/ha
How it was run: as §2

[10] = test system: windgrass; experiment: Test Example 4: herbicidal effect by soil treatment (Table 19, symbol L); assay type: in vivo, windgrass (Apera spica-venti); conditions: AAH 320 g/ha
How it was run: as §2

[11] = test system: velvetleaf; experiment: Test Example 4: herbicidal effect by soil treatment (Table 19, symbol M); assay type: in vivo, velvetleaf (Abutilon theophrasti); conditions: AAH 320 g/ha
How it was run: as §2

[12] = test system: redroot pigweed; experiment: Test Example 4: herbicidal effect by soil treatment (Table 19, symbol N); assay type: in vivo, redroot pigweed (Amaranthus retroflexus); conditions: AAH 320 g/ha
How it was run: as §2

[13] = test system: lambsquarters; experiment: Test Example 4: herbicidal effect by soil treatment (Table 19, symbol O); assay type: in vivo, lambsquarters (Chenopodium album); conditions: AAH 320 g/ha
How it was run: as §2

[14] = test system: chickweed; experiment: Test Example 4: herbicidal effect by soil treatment (Table 19, symbol P); assay type: in vivo, common chickweed (Stellaria media); conditions: AAH 320 g/ha
How it was run: as §2

[15] = test system: persian speedwell; experiment: Test Example 4: herbicidal effect by soil treatment (Table 19, symbol R); assay type: in vivo, Persian speedwell (Veronica persica); conditions: AAH 320 g/ha
How it was run: as §2

[16] = test system: southern crabgrass; experiment: Test Example 5: herbicidal effect by foliage application, plastic box (Table 20, symbol F); assay type: in vivo, southern crabgrass (Digitaria ciliaris); conditions: foliage application, AAH 320 g/ha, three weeks after application
How it was run: (§3)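 Plants were sown into sterilized diluvial soil under about 1.5 cm cover and kept in a greenhouse at 25° C. to 30° C. Fourteen days on, foliage received an even spray of the diluted emulsion. Herbicidal or crop effect was judged three weeks afterwards.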

[17] = test system: green foxtail; experiment: Test Example 5: herbicidal effect by foliage application, plastic box (Table 20, symbol G); assay type: in vivo, green foxtail (Setaria viridis); conditions: foliage application, AAH 320 g/ha, three weeks after application
How it was run: as §3

[18] = test system: barnyard grass; experiment: Test Example 5: herbicidal effect by foliage application, plastic box (Table 20, symbol H); assay type: in vivo, barnyard grass (Echinochloa crus-galli); conditions: foliage application, AAH 320 g/ha, three weeks after application
How it was run: as §3

[19] = test system: wild oat; experiment: Test Example 5: herbicidal effect by foliage application, plastic box (Table 20, symbol I); assay type: in vivo, wild oat (Avena fatua); conditions: foliage application, AAH 320 g/ha, three weeks after application
How it was run: as §3

[20] = test system: blackgrass; experiment: Test Example 5: herbicidal effect by foliage application, plastic box (Table 20, symbol J); assay type: in vivo, blackgrass (Alopecurus myosuroides); conditions: foliage application, AAH 320 g/ha, three weeks after application
How it was run: as §3

[21] = test system: Italian ryegrass; experiment: Test Example 5: herbicidal effect by foliage application, plastic box (Table 20, symbol K); assay type: in vivo, Italian ryegrass (Lolium multiflorum); conditions: foliage application, AAH 320 g/ha, three weeks after application
How it was run: as §3

[22] = test system: windgrass; experiment: Test Example 5: herbicidal effect by foliage application, plastic box (Table 20, symbol L); assay type: in vivo, windgrass (Apera spica-venti); conditions: foliage application, AAH 320 g/ha, three weeks after application
How it was run: as §3

[23] = test system: velvetleaf; experiment: Test Example 5: herbicidal effect by foliage application, plastic box (Table 20, symbol M); assay type: in vivo, velvetleaf (Abutilon theophrasti); conditions: foliage application, AAH 320 g/ha, three weeks after application
How it was run: as §3

[24] = test system: redroot pigweed; experiment: Test Example 5: herbicidal effect by foliage application, plastic box (Table 20, symbol N); assay type: in vivo, redroot pigweed (Amaranthus retroflexus); conditions: foliage application, AAH 320 g/ha, three weeks after application
How it was run: as §3

[25] = test system: lambsquarters; experiment: Test Example 5: herbicidal effect by foliage application, plastic box (Table 20, symbol O); assay type: in vivo, lambsquarters (Chenopodium album); conditions: foliage application, AAH 320 g/ha, three weeks after application
How it was run: as §3

[26] = test system: chickweed; experiment: Test Example 5: herbicidal effect by foliage application, plastic box (Table 20, symbol P); assay type: in vivo, common chickweed (Stellaria media); conditions: foliage application, AAH 320 g/ha, three weeks after application
How it was run: as §3

[27] = test system: persian speedwell; experiment: Test Example 5: herbicidal effect by foliage application, plastic box (Table 20, symbol R); assay type: in vivo, Persian speedwell (Veronica persica); conditions: foliage application, AAH 320 g/ha, three weeks after application
How it was run: as §3

Row | SMILES | herbicidal effect on H (barnyard grass), rating 0-5 [1] | herbicidal effect on D (Chinese sprangletop), rating 0-5 [2] | herbicidal effect on E (rice flat sedge), rating 0-5 [3] | F: southern crabgrass, herbicidal effect rating [4] | G: green foxtail, herbicidal effect rating [5] | H: barnyard grass, herbicidal effect rating [6] | I: wild oat, herbicidal effect rating [7] | J: blackgrass, herbicidal effect rating [8] | K: Italian ryegrass, herbicidal effect rating [9] | L: windgrass, herbicidal effect rating [10] | M: velvetleaf, herbicidal effect rating [11] | N: redroot pigweed, herbicidal effect rating [12] | O: lambsquarters, herbicidal effect rating [13] | P: chickweed, herbicidal effect rating [14] | R: persian speedwell, herbicidal effect rating [15] | F: southern crabgrass, herbicidal effect [16] | G: green foxtail, herbicidal effect [17] | H: barnyard grass, herbicidal effect [18] | I: wild oat, herbicidal effect [19] | J: blackgrass, herbicidal effect [20] | also measured
1 | C=CCOc1ccc(-c2sc3ccccc3c2-c2c(O)c(C)nn(C)c2=O)cc1 [1-139] | 5 (Herbicidal rate of 90% or more (almost completely withered)) | 0 (Herbicidal rate of 5% or less (almost no effect)) | 5 (Herbicidal rate of 90% or more (almost completely withered)) | 0 (Herbicidal rate of 5% or less (almost no effect)) | 3 (Herbicidal rate of 40% or more and less than 70%) | 4 (Herbicidal rate of 70% or more and less than 90%) | 0 (Herbicidal rate of 5% or less (almost no effect)) | 0 (Herbicidal rate of 5% or less (almost no effect)) | 5 (Herbicidal rate of 90% or more (almost completely withered)) | 3 (Herbicidal rate of 40% or more and less than 70%) | 2 (Herbicidal rate of 20% or more and less than 40%) | 5 (Herbicidal rate of 90% or more (almost completely withered)) | 4 (Herbicidal rate of 70% or more and less than 90%) | 5 (Herbicidal rate of 90% or more (almost completely withered)) | 5 (Herbicidal rate of 90% or more (almost completely withered)) | 5 (Herbicidal rate of 90% or more (almost completely withered)) | 5 (Herbicidal rate of 90% or more (almost completely withered)) | 5 (Herbicidal rate of 90% or more (almost completely withered)) | 4 (Herbicidal rate of 70% or more and less than 90%) | 4 (Herbicidal rate of 70% or more and less than 90%) | K: Italian ryegrass, herbicidal effect [21]: 5 (Herbicidal rate of 90% or more (almost completely withered)); L: windgrass, herbicidal effect [22]: 5 (Herbicidal rate of 90% or more (almost completely withered)); M: velvetleaf, herbicidal effect [23]: 4 (Herbicidal rate of 70% or more and less than 90%); N: redroot pigweed, herbicidal effect [24]: 5 (Herbicidal rate of 90% or more (almost completely withered)); O: lambsquarters, herbicidal effect [25]: 4 (Herbicidal rate of 70% or more and less than 90%); P: chickweed, herbicidal effect [26]: 5 (Herbicidal rate of 90% or more (almost completely withered)); R: persian speedwell, herbicidal effect [27]: 5 (Herbicidal rate of 90% or more (almost completely withered))
2 | COc1nn(C)c(=O)c(-c2c(-c3ccc([N+](=O)[O-])cc3)sc3ccccc23)c1O [1-168] | 0 (Herbicidal rate of 5% or less (almost no effect)) | 0 (Herbicidal rate of 5% or less (almost no effect)) | 3 (Herbicidal rate of 40% or more and less than 70%) | 0 (Herbicidal rate of 5% or less (almost no effect)) | 0 (Herbicidal rate of 5% or less (almost no effect)) | 0 (Herbicidal rate of 5% or less (almost no effect)) | 0 (Herbicidal rate of 5% or less (almost no effect)) | 0 (Herbicidal rate of 5% or less (almost no effect)) | 0 (Herbicidal rate of 5% or less (almost no effect)) | 0 (Herbicidal rate of 5% or less (almost no effect)) | 0 (Herbicidal rate of 5% or less (almost no effect)) | 1 (Herbicidal rate of 5% or more and less than 20%) | 0 (Herbicidal rate of 5% or less (almost no effect)) | 4 (Herbicidal rate of 70% or more and less than 90%) | 3 (Herbicidal rate of 40% or more and less than 70%) | 3 (Herbicidal rate of 40% or more and less than 70%) | 3 (Herbicidal rate of 40% or more and less than 70%) | 2 (Herbicidal rate of 20% or more and less than 40%) | 0 (Herbicidal rate of 5% or less (almost no effect)) | 0 (Herbicidal rate of 5% or less (almost no effect)) | K: Italian ryegrass, herbicidal effect [21]: 2 (Herbicidal rate of 20% or more and less than 40%); L: windgrass, herbicidal effect [22]: 0 (Herbicidal rate of 5% or less (almost no effect)); M: velvetleaf, herbicidal effect [23]: 4 (Herbicidal rate of 70% or more and less than 90%); N: redroot pigweed, herbicidal effect [24]: 5 (Herbicidal rate of 90% or more (almost completely withered)); O: lambsquarters, herbicidal effect [25]: 4 (Herbicidal rate of 70% or more and less than 90%); P: chickweed, herbicidal effect [26]: 5 (Herbicidal rate of 90% or more (almost completely withered)); R: persian speedwell, herbicidal effect [27]: 5 (Herbicidal rate of 90% or more (almost completely withered))
3 | COc1nn(C)c(=O)c(-c2c(-c3ccc(C#N)cc3)sc3ccccc23)c1O [1-170] | 2 (Herbicidal rate of 20% or more and less than 40%) | 1 (Herbicidal rate of 5% or more and less than 20%) | 5 (Herbicidal rate of 90% or more (almost completely withered)) | 0 (Herbicidal rate of 5% or less (almost no effect)) | 0 (Herbicidal rate of 5% or less (almost no effect)) | 0 (Herbicidal rate of 5% or less (almost no effect)) | 0 (Herbicidal rate of 5% or less (almost no effect)) | 0 (Herbicidal rate of 5% or less (almost no effect)) | 0 (Herbicidal rate of 5% or less (almost no effect)) | 0 (Herbicidal rate of 5% or less (almost no effect)) | 0 (Herbicidal rate of 5% or less (almost no effect)) | 5 (Herbicidal rate of 90% or more (almost completely withered)) | 0 (Herbicidal rate of 5% or less (almost no effect)) | 4 (Herbicidal rate of 70% or more and less than 90%) | 5 (Herbicidal rate of 90% or more (almost completely withered)) | 3 (Herbicidal rate of 40% or more and less than 70%) | 5 (Herbicidal rate of 90% or more (almost completely withered)) | 4 (Herbicidal rate of 70% or more and less than 90%) | 2 (Herbicidal rate of 20% or more and less than 40%) | 0 (Herbicidal rate of 5% or less (almost no effect)) | K: Italian ryegrass, herbicidal effect [21]: 3 (Herbicidal rate of 40% or more and less than 70%); L: windgrass, herbicidal effect [22]: 0 (Herbicidal rate of 5% or less (almost no effect)); M: velvetleaf, herbicidal effect [23]: 5 (Herbicidal rate of 90% or more (almost completely withered)); N: redroot pigweed, herbicidal effect [24]: 5 (Herbicidal rate of 90% or more (almost completely withered)); O: lambsquarters, herbicidal effect [25]: 5 (Herbicidal rate of 90% or more (almost completely withered)); P: chickweed, herbicidal effect [26]: 5 (Herbicidal rate of 90% or more (almost completely withered)); R: persian speedwell, herbicidal effect [27]: 5 (Herbicidal rate of 90% or more (almost completely withered))
